Reference: publication PMC11360483, “Anti-Inflammatory, Antibacterial, Anti-Biofilm, and Anti-Quorum Sensing Activities of the Diterpenes Isolated from Clinopodium bolivianum” (Pharmaceutics, 2024)
Converted amounts (≈) assume the structure as drawn. “And” between values parts separate entries of the source, which are not always exact repeats. Equal entries are not always repeated. Structures can show the parent of a compound that is named as a salt. Where two headings read alike, the source gives them in different places. *1 amine or outer side, *2 acyl side, *3 side chain or, on linkers, in order; H or OH if unused. Where a SMILES comes first, the peptide text is derived from it. Bridges are numbered along the chain shown (N, C = ends). Roman numbers before positions name the chains, in order. [ ]: non-standard residue; d: D form. Actinocin(9to1) = Cc1c2oc3c(C)ccc(C(=O)[*:1])c3nc-2c(C(=O)[*:2])c(N)c1=O; NMeV = CN[C@H](C(=O)O)C(C)C; Sar = CNCC(=O)O

Key:
[1] = tested on: C. violaceum; assay type: cell-based, Chromobacterium violaceum; conditions: for % of Violacein Inhibition: at the Anti-QS concentration (compound 3 at 0.94 µM, compound 4 at 1.16 µM)
[2] = tested on: NF-κB; experiment: NF-κB inhibition assay (LPS-stimulated) in HBEC3-KT; assay type: cell-based; conditions: Homo sapiens, 24 h, read-out: NF-κB Inhibition at 24 h IC50 ± SEM
[3] = tested on: S. aureus; experiment: microbe, parasite or virus in culture; assay type: cell-based; conditions: Staphylococcus aureus, 24 h
[4] = tested on: H. influenzae; experiment: microbe, parasite or virus in culture; assay type: cell-based; conditions: Haemophilus influenzae, 24 h
[5] = tested on: S. pneumoniae; assay type: cell-based, Streptococcus pneumoniae
[6] = tested on: S. aureus; assay type: cell-based, Staphylococcus aureus
[7] = tested on: NF-κB; experiment: NF-κB inhibition assay (LPS-stimulated) in MRC-5; assay type: cell-based; conditions: Homo sapiens, read-out: NF-κB Inhibition at 24 h IC50 ± SEM
[8] = tested on: L. pneumophila; experiment: microbe, parasite or virus in culture; assay type: cell-based; conditions: Legionella pneumophila, 24 h
[9] = WST-1 cytotoxicity (viability) assay, control cell line; conditions: human
[10] = tested on: H. influenzae; assay type: cell-based, Haemophilus influenzae
[11] = tested on: S. pneumoniae; experiment: microbe, parasite or virus in culture; assay type: cell-based; conditions: Streptococcus pneumoniae, 24 h
[12] = tested on: NF-κB; experiment: NF-κB inhibition assay (LPS-stimulated) in THP-1; assay type: cell-based; conditions: Homo sapiens, read-out: NF-κB Inhibition at 24 h IC50 ± SEM
[13] = tested on: L. pneumophila; assay type: cell-based, Legionella pneumophila
[14] = tested on: C. violaceum; experiment: Anti-biofilm activity on C. violaceum; assay type: cell-based, Chromobacterium violaceum
[15] = tested on: H. influenzae, L. pneumophila, S. pneumoniae, and S. aureus; experiment: organism not typed; assay type: cell-based
[16] = tested on: RAW 264.7 cells; parameters: method as in doi:10.1016/j.phytol.2020.01.005; conditions: read-out: IC50, inhibition of nitric oxide (NO) production; cited from earlier work
[17] = tested on: H. influenzae, L. pneumophila, S. pneumoniae, and S. aureus; assay type: cell-based; conditions: strain not stated
[18] = tested on: H. influenzae, L. pneumophila, S. pneumoniae, and S. aureus; assay type: cell-based; conditions: strain not stated; remark: listed apart in the source
[19] = WST-1 cytotoxicity assay, cell line not singled out; conditions: human
[20] = tested on: Huh7 cells; parameters: method as in PMID 37423053; conditions: cited from earlier work
[21] = tested on: Hep3B cells; parameters: method as in PMID 37423053; conditions: cited from earlier work
[22] = WST-1 cytotoxicity (viability) assay; conditions: human, WST-1, 24 h, HBEC3-KT
[23] = WST-1 cytotoxicity (viability) assay; conditions: human, WST-1, 24 h, MRC-5
[24] = MRC5, MRC-5, LPS-stimulated, 24 h
[25] = range over S. pneumoniae and S. aureus Gram-positive bacteria
[26] = value given in the method for the compounds
[27] = value given in the method for the extracts

Compound: CC(C)(O)C1=CC2=CCC3[C@](C)(CCC[C@@]3(C)C(=O)O)C2CC1=O (some centres unmarked) [Compound 1, 15-Hydroxy-12-oxo-abietic acid]
- Anti-QS [1]: 4.83 ± 0.05 µM
- % of Violacein Inhibition [1]: 20.45%
- IC50 ([2]; LPS-stimulated): 27.9 ± 0.89 µM
- MIC [3]: 7.88 µM (≈ 2.62 µg/mL)
- MIC [4]: 28.3 µM (≈ 9.42 µg/mL)
- Quorum Sensing Inhibition at 24 h Anti-QS ± SEM [5]: 9.89 ± 0.04 µM
- Quorum Sensing Inhibition at 24 h Anti-QS ± SEM [6]: 12.24 ± 0.08 µM
- IC50 [7, 24]: 39.01 ± 0.22 µM
- MIC [8]: 20.2 µM (≈ 6.72 µg/mL)
- CC50 at 24 h [9]: 88.4 µM
- Quorum Sensing Inhibition at 24 h Anti-QS ± SEM [10]: 4.64 ± 0.09 µM
- MIC [11]: 4.14 µM (≈ 1.38 µg/mL)
- IC50 ([12]; THP-1, LPS-stimulated, 24 h): 43.4 ± 0.73 µM
- Quorum Sensing Inhibition at 24 h Anti-QS ± SEM [13]: 2.44 ± 0.09 µM
- BIC [14]: 11.31 ± 0.07 µM

Compound: CC(C)(O)c1ccc2c(c1)CC[C@H]1[C@](C)(C(=O)O)CCC[C@]21C [Compound 4, 15-Hydroxydehydroabietic acid]
- Anti-QS [1]: 1.16 ± 0.06 µM
- % of Violacein Inhibition [1]: 71.60%
- IC50 ([2]; LPS-stimulated): 10.8 ± 0.69 µM
- MIC [3]: 4.06 µM (≈ 1.28 µg/mL)
- MIC [4]: 15.4 µM (≈ 4.88 µg/mL)
- Quorum Sensing Inhibition at 24 h Anti-QS ± SEM [5]: 7.78 ± 0.01 µM
- Quorum Sensing Inhibition at 24 h Anti-QS ± SEM [6]: 10.08 ± 0.08 µM
- MIC [15, 25]: 2.06 to 4.06 µM
- IC50 [7, 24]: 17.4 ± 0.82 µM
- MIC [8]: 9.83 µM (≈ 3.11 µg/mL)
- CC50 at 24 h [9]: 78.9 µM
- Quorum Sensing Inhibition at 24 h Anti-QS ± SEM [10]: 2.39 ± 0.03 µM
- MIC [11]: 2.06 µM (≈ 0.652 µg/mL)
- IC50 ([12]; THP-1, LPS-stimulated, 24 h): 23.4 ± 0.71 µM
- Quorum Sensing Inhibition at 24 h Anti-QS ± SEM [13]: 1.21 ± 0.04 µM
- BIC [14]: 5.81 ± 0.02 µM
- IC50 [16]: 50.9 µM

Compound: CC(C)C1=CC2=CC[C@@H]3[C@](C)(CCC[C@@]3(C)C(=O)O)[C@H]2C[C@@H]1O [Compound 2, 12α-Hydroxyabietic acid]
- Anti-QS [1]: 3.55 ± 0.06 µM
- % of Violacein Inhibition [1]: 48.88%
- IC50 ([2]; LPS-stimulated): 21.9 ± 0.23 µM
- MIC [3]: 5.42 µM (≈ 1.73 µg/mL)
- MIC [4]: 23.5 µM (≈ 7.47 µg/mL)
- Quorum Sensing Inhibition at 24 h Anti-QS ± SEM [5]: 8.14 ± 0.05 µM
- Quorum Sensing Inhibition at 24 h Anti-QS ± SEM [6]: 11.81 ± 0.07 µM
- IC50 [7, 24]: 26.9 ± 0.61 µM
- MIC [8]: 17.2 µM (≈ 5.49 µg/mL)
- CC50 at 24 h [9]: 84.3 µM
- Quorum Sensing Inhibition at 24 h Anti-QS ± SEM [10]: 3.19 ± 0.04 µM
- MIC [11]: 3.31 µM (≈ 1.05 µg/mL)
- IC50 ([12]; THP-1, LPS-stimulated, 24 h): 32.6 ± 0.69 µM
- Quorum Sensing Inhibition at 24 h Anti-QS ± SEM [13]: 1.95 ± 0.07 µM
- BIC [14]: 7.54 ± 0.05 µM

Compound: O=C1C=C(Br)/C(=C/Br)O1 [Furanone C-30, (Z)-4-Bromo-5-(bromomethylene)-2(5H)-furanone, reference compound]
- Quorum Sensing Inhibition at 24 h Anti-QS ± SEM [5]: 12.03 ± 0.08 μM and 3.44 ± 0.06 μg/mL
- Quorum Sensing Inhibition at 24 h Anti-QS ± SEM [6]: 12.67 ± 0.02 μM and 3.77 ± 0.04 μg/mL
- Quorum Sensing Inhibition at 24 h Anti-QS ± SEM [10]: 11.81 ± 0.05 μM and 3.21 ± 0.02 μg/mL
- Quorum Sensing Inhibition at 24 h Anti-QS ± SEM [13]: 11.59 ± 0.03 μM and 3.03 ± 0.08 μg/mL
- Anti-QS value of positive control [17, 26]: 11.81 µM
- Anti-QS value of positive control [17, 27]: 3 µg/mL

Compound: O=C(O)c1cn(C2CC2)c2cc(N3CCNCC3)c(F)cc2c1=O [CIP, Ciprofloxacin hydrochloride, reference compound]
- Anti-QS [1]: 1.51 ± 0.01 µM
- % of Violacein Inhibition [1]: 71.68%
- violacein inhibitory concentration (CIV) ([1]; reference standard): 1.51 µM
- BIC [14]: 2.13 ± 0.01 µM

Compound: CC1=C(O)C(=O)C=C2C1=CC=C1[C@@]2(C)CC[C@@]2(C)[C@@H]3C[C@](C)(C(=O)O)CC[C@]3(C)CC[C@]12C [CEL, Celastrol, reference compound]
- IC50 [2]: 7.15 µM and 3.24 µg/mL
- IC50 ([7]; MRC5, 24 h): 7.41 µM and 3.27 µg/mL
- IC50 ([12]; THP-1, 24 h): 7.63 µM and 3.34 µg/mL

Compound: N=C(NCCCCCCNC(=N)NC(=N)Nc1ccc(Cl)cc1)NC(=N)Nc1ccc(Cl)cc1.O=C(O)[C@H](O)[C@@H](O)[C@H](O)[C@H](O)CO.O=C(O)[C@H](O)[C@@H](O)[C@H](O)[C@H](O)CO [CHG, chlorhexidine digluconate]
- BIC of reference control [18, 26]: 2.23 µM
- BIC of reference control [18, 27]: 2000 µg/mL

Compound: CC1=C2C=C3CCC4C(C)(C)CCC[C@]4(C)C3CC2OC1=O (single isomer, unassigned; (-)) [Compound 3, (−)-Jolkinolide E]
- CC50 at 24 h [19]: > 70 µM
- Anti-QS [1]: 0.94 ± 0.03 µM
- % of Violacein Inhibition [1]: 78.13%
- cytotoxicity [20]: 39.53 µM
- IC50 ([2]; LPS-stimulated): 18 ± 0.37 µM
- MIC [3]: 1.09 µM (≈ 0.327 µg/mL)
- MIC [4]: 4.89 µM (≈ 1.47 µg/mL)
- Quorum Sensing Inhibition at 24 h Anti-QS ± SEM [5]: 3.01 ± 0.07 µM
- Quorum Sensing Inhibition at 24 h Anti-QS ± SEM [6]: 4.88 ± 0.09 µM
- MIC [15, 25]: 0.53 to 1.09 µM
- IC50 [7, 24]: 23.96 ± 0.21 µM
- MIC [8]: 1.71 µM (≈ 0.514 µg/mL)
- CC50 at 24 h [9]: 71.2 µM
- Quorum Sensing Inhibition at 24 h Anti-QS ± SEM [10]: 0.64 ± 0.01 µM
- cytotoxicity [21]: 37.23 µM
- MIC [11]: 0.53 µM (≈ 0.159 µg/mL)
- IC50 ([12]; THP-1, LPS-stimulated, 24 h): 29.4 ± 0.48 µM
- Quorum Sensing Inhibition at 24 h Anti-QS ± SEM [13]: 0.31 ± 0.03 µM
- BIC [14]: 1.62 ± 0.06 µM

Compound: CC1COc2c(N3CCN(C)CC3)c(F)cc3c(=O)c(C(=O)O)cn1c23 (centres unmarked) [OFX, Ofloxacin, reference compound]
- MIC [3]: 10 µg/mL and 24.1 µM
- MIC [4]: 12.3 µg/mL and 28.4 µM
- MIC ([15]; read-out: MIC of positive control, for the compounds, strain not stated or range over the four strains): 27.7 µM
- MIC ([15]; read-out: MIC of positive control, value given in the method for the extracts, strain not stated): 10 µg/mL
- MIC [8]: 11.3 µg/mL and 26.8 µM
- MIC [11]: 9.03 µg/mL and 25.1 µM

Compound: Cc1c2oc3c(C)ccc(C(=O)N[C@@H]4C(=O)N[C@H](C(C)C)C(=O)N5CCC[C@H]5C(=O)N(C)CC(=O)N(C)[C@@H](C(C)C)C(=O)O[C@@H]4C)c3nc-2c(C(=O)N[C@@H]2C(=O)N[C@H](C(C)C)C(=O)N3CCC[C@H]3C(=O)N(C)CC(=O)N(C)[C@@H](C(C)C)C(=O)O[C@@H]2C)c(N)c1=O [ACTD, Actinomycin D, reference compound] (I: T[dV]P[Sar][NMeV] / II: T[dV]P[Sar][NMeV]; ester I:1-I:C, II:1-II:C; linker I:N-II:N via Actinocin(9to1))
- CC50 at 24 h ([19]; CC50, cell line not singled out, for the compounds): 0.008 µM
- CC50 at 24 h ([19]; CC50 of positive control, value given in the method for the extracts, cell line not stated): 0.01 µg/mL
- CC50 at 24 h [22]: 0.014 µg/mL and 10 nM
- CC50 at 24 h ([9]; Viability (CC50), WST-1, 24 h, THP-1): 0.019 µg/mL and 10 nM
- CC50 at 24 h [23]: 0.017 µg/mL and 10 nM
